Source: PubChem BioAssay (NCI)
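Five compound concentrations were applied to cells in 96-well plates for 48 hours; endpoints were derived by simple linear interpolation of the resulting dose-response curve. At the TGI there is no net growth.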

Key:
Assay in all cases: growth of human tumour cells (NCI), 48 h
[1] = test system: 786-0 renal
[2] = test system: A549 NSCLC
[3] = test system: COLO 205 colon
[4] = test system: HL-60(TB) leukemia
[5] = test system: K-562 leukemia
[6] = test system: KM12 colon
[7] = test system: NCI-H226 lung
[8] = test system: NCI-H23 lung
[9] = test system: SNB-19 CNS
[10] = test system: SR leukemia
[11] = test system: U251 CNS
[12] = test system: UO-31 renal
[13] = test system: CAKI-1 renal
[14] = test system: LOX IMVI melanoma
[15] = test system: NCI-H522 lung
[16] = test system: OVCAR-4 ovarian
[17] = test system: SK-MEL-5 melanoma
[18] = test system: SK-OV-3 ovarian
[19] = test system: HCC-2998 colon

SMILES | TGI [1] | TGI [2] | TGI [3] | TGI [4] | TGI [5] | TGI [6] | TGI [7] | TGI [8] | TGI [9] | TGI [10] | TGI [11] | TGI [12] | TGI [13] | TGI [14] | TGI [15] | TGI [16] | TGI [17] | TGI [18] | TGI [19]
Cc1cc(C)c(NS(=O)c2cccc([N+](=O)[O-])c2)c(C)c1 (stereo not given) | > 100 µM | > 100 µM | > 100 µM | > 100 µM | > 100 µM | > 100 µM | > 100 µM | > 100 µM | > 100 µM | > 100 µM | > 100 µM | > 100 µM |  |  |  |  |  |  | 
O=C(NNC(=O)c1ccccc1Cl)c1ccccc1O | > 100 µM | > 100 µM | > 100 µM |  | > 100 µM | > 100 µM | 77.1 µM |  | > 100 µM | > 100 µM | > 100 µM | > 100 µM | > 100 µM | > 100 µM | 99.2 µM | > 100 µM | > 100 µM | > 100 µM | 
c1ccc2c3nnc(c2c1)SCCSCCCSCCS3 | > 100 µM | > 100 µM | > 100 µM | > 100 µM | > 100 µM | > 100 µM | > 100 µM | > 100 µM | 76 µM |  | > 100 µM | > 100 µM | > 100 µM | > 100 µM | > 100 µM | 25.8 µM | > 100 µM | 97.5 µM | > 100 µM
CC1(C)O[C@@H](CP(c2ccccc2)c2ccccc2)[C@H](CP(c2ccccc2)c2ccccc2)O1 | 22.8 µM | 85.7 µM | 12.4 µM |  |  | 54.7 µM | 51.1 µM | 14.6 µM | 72.2 µM |  | 20.2 µM |  | > 100 µM | 17.4 µM | 12.8 µM | > 100 µM | 19.4 µM | > 100 µM | 
O=[N+]([O-])c1ccc(N2N=C(c3ccc4ccccc4c3O)CC2c2ccc(Cl)cc2Cl)c([N+](=O)[O-])c1 (stereo not given) | > 100 µM | > 100 µM | > 100 µM | 77.4 µM | 35.5 µM | > 100 µM | > 100 µM | > 100 µM | > 100 µM |  | > 100 µM | > 100 µM | > 100 µM | > 100 µM | > 100 µM | > 100 µM | > 100 µM | > 100 µM | > 100 µM
C1=c2ccccc2=C2C(=C(c3ccccc3)C(c3ccccc3)=NN2c2ccccc2)S1 | > 100 µM | > 100 µM | > 100 µM | > 100 µM | > 100 µM | > 100 µM | > 100 µM | > 100 µM | > 100 µM |  | > 100 µM | > 100 µM | > 100 µM | > 100 µM | > 100 µM | > 100 µM | > 100 µM | > 100 µM | > 100 µM
Cc1nc(N)sc1C(=O)/C=C/c1ccc([N+](=O)[O-])cc1 | > 100 µM | > 100 µM | > 100 µM | > 100 µM | > 100 µM | > 100 µM |  | > 100 µM | > 100 µM |  | > 100 µM | > 100 µM | > 100 µM | > 100 µM | > 100 µM |  | > 100 µM | > 100 µM | > 100 µM
COc1ccc(-n2c(=O)n(C)c(=O)n2-c2c(C)c(C)c(C)c(C)c2C)cc1 | > 100 µM | > 100 µM | > 100 µM |  | > 100 µM | > 100 µM | > 100 µM | > 100 µM | > 100 µM |  | > 100 µM | > 100 µM | > 100 µM | > 100 µM | > 100 µM | > 100 µM | > 100 µM | > 100 µM | > 100 µM
Cc1cccc(N=C2NC(=O)C(CC(=O)Nc3ccc(Cl)cc3C)S2)c1 (stereo not given) | > 100 µM | > 100 µM | > 100 µM | > 100 µM | > 100 µM | > 100 µM | > 100 µM | > 100 µM | > 100 µM |  |  | > 100 µM | > 100 µM | > 100 µM | > 100 µM | > 100 µM | > 100 µM | > 100 µM | > 100 µM
CCOc1ccc(NC(=O)CCC(=O)NN)cc1 | > 100 µM | > 100 µM | > 100 µM | > 100 µM | > 100 µM | > 100 µM | > 100 µM | > 100 µM | > 100 µM |  | > 100 µM | > 100 µM | > 100 µM | > 100 µM | > 100 µM | > 100 µM | > 100 µM |  | > 100 µM
COc1ccccc1OC(=O)/C=C/c1ccccc1 | > 100 µM | > 100 µM | > 100 µM | > 100 µM |  | > 100 µM | > 100 µM | > 100 µM | > 100 µM | > 100 µM | > 100 µM | > 100 µM | > 100 µM | > 100 µM | > 100 µM | > 100 µM | > 100 µM | > 100 µM | > 100 µM
CCOC(=O)CCC(NC(=O)c1ccc(Oc2nc3ccccc3nc2C(=O)OCC)cc1)C(=O)OCC (stereo not given) | > 100 µM | > 100 µM | > 100 µM | > 100 µM |  | > 100 µM |  | > 100 µM | > 100 µM | > 100 µM | > 100 µM | > 100 µM | > 100 µM | > 100 µM | > 100 µM | > 100 µM | > 100 µM |  | > 100 µM
O=c1cc(-c2ccccc2Cl)[nH]c2cc3c(cc12)OCO3 | 29.8 µM | > 16.7 µM | 0.195 µM | 0.0511 µM |  | > 31.6 µM | 0.689 µM | > 11 µM | > 100 µM | > 100 µM | 1.25 µM | > 20 µM | 39.9 µM | 11.9 µM | 0.489 µM | > 9.75 µM | 2.03 µM | 11.4 µM | 0.496 µM
